# Measurements reported in ChEMBL document CHEMBL1149525, “Synthesis and evaluation of anilinohexafluoroisopropanols as activators/modulators of LXRalpha and beta” (Bioorg Med Chem Lett, 2006).
# Legend:
# [1] = target: T1, Oxysterols receptor LXR-alpha (Homo sapiens, UniProt Q13133)
# T1 sequence (Q13133 whole entry): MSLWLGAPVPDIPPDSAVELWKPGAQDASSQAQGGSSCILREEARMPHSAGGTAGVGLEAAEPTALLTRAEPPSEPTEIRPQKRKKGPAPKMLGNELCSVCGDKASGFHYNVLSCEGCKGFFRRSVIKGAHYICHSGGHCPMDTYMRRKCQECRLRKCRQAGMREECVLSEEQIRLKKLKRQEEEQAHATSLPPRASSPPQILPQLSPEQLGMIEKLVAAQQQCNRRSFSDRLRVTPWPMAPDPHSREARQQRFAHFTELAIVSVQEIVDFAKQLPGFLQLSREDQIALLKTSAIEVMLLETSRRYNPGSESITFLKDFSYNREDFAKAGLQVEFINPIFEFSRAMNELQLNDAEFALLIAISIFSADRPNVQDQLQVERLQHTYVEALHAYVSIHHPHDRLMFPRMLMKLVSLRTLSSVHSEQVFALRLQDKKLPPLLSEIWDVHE
# [2] = target: T1, Oxysterols receptor LXR-alpha; remark: listed apart in the source
# [3] = system: Mus musculus; assay: Increase in liver triglyceride level in C57BL/6J mouse after 5 days at 10 mg/kg/day relative to control; type: functional
# [4] = system: Mus musculus; assay: Decrease in plasma triglyceride level in C57BL/6J mouse after 5 days at 10 mg/kg/day relative to control; type: functional; set-up: scale not given: the % may be the effect or the level left
# [5] = target: T2, Oxysterols receptor LXR-beta (Homo sapiens, UniProt P55055)
# T2 sequence (P55055 whole entry): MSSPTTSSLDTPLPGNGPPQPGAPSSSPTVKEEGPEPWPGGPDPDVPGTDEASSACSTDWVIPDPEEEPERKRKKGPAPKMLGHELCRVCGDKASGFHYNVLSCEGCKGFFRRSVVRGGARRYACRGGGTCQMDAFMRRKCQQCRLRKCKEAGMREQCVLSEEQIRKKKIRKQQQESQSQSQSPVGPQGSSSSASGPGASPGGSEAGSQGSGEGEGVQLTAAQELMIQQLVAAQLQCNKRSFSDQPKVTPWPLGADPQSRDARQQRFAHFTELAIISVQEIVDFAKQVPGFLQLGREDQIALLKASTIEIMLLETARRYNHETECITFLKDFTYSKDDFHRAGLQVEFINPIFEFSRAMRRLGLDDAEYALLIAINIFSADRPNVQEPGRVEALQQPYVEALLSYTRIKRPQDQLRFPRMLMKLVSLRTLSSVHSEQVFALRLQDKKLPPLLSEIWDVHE
# [6] = Liver concentration in C57BL/6J mouse after 5 days at 10 mg/kg/day; type: ADME, organism-based; details: read-out: Drug uptake
# [7] = Plasma concentration in C57BL/6J mouse after 5 days at 10 mg/kg/day; type: ADME, organism-based
# [8] = target: T2, Oxysterols receptor LXR-beta; remark: listed apart in the source
# [9] = system: Mus musculus; assay: Increase in plasma HDL-C level in C57BL/6J mouse after 5 days at 10 mg/kg/day relative to control; type: functional
# [10] = system: Mus musculus; assay: Increase in plasma triglyceride level in C57BL/6J mouse after 5 days at 100 mg/kg/day relative to control; type: functional
# [11] = system: Mus musculus; assay: Increase in liver triglyceride level in C57BL/6J mouse after 5 days at 100 mg/kg/day relative to control; type: functional
# [12] = Plasma concentration in C57BL/6J mouse after 5 days at 100 mg/kg/day; type: ADME, organism-based
# [13] = system: Mus musculus; assay: Increase in plasma HDL-C level in C57BL/6J mouse after 5 days at 100 mg/kg/day relative to control; type: functional
# [14] = Liver concentration in C57BL/6J mouse after 5 days at 100 mg/kg/day; type: ADME, organism-based; details: read-out: Drug uptake
# [15] = system: Mus musculus; assay: Decrease in plasma triglyceride level in C57BL/6J mouse after 5 days at 100 mg/kg/day relative to control; type: functional; set-up: scale not given: the % may be the effect or the level left
EC50 [1],IC50 [2],SMILES,also measured
2100 nM,1700 nM,CCN(Cc1ccncc1)c1ccc(C(O)(C(F)(F)F)C(F)(F)F)cc1,–
700 nM,1500 nM,CCN(Cc1ccccn1)c1ccc(C(O)(C(F)(F)F)C(F)(F)F)cc1,–
900 nM,70 nM,OC(c1ccc(N(Cc2ccccc2)CC(F)(F)F)cc1)(C(F)(F)F)C(F)(F)F,–
200 nM,6 nM,CCN(Cc1nc(-c2cccc(C(F)(F)F)c2)oc1C)c1ccc(C(O)(C(F)(F)F)C(F)(F)F)cc1,Activity [3]: 70%; Activity [4]: 12%; IC50 [5]: 3 nM; concentration at 120 h [6]: 8200 ng/g; concentration at 120 h [7]: 700 ng/mL; EC50 [8]: 60 nM; Activity [9]: 35%
500 nM,20 nM,CCN(Cc1cscn1)c1ccc(C(O)(C(F)(F)F)C(F)(F)F)cc1Cl,–
700 nM,13 nM,Cc1oc(-c2cccc(C(F)(F)F)c2)nc1CN(CC(F)(F)F)c1ccc(C(O)(C(F)(F)F)C(F)(F)F)cc1,–
300 nM,2 nM,CCN(Cc1nc(-c2cccc(Cl)c2)oc1C)c1ccc(C(O)(C(F)(F)F)C(F)(F)F)cc1Cl,–
1000 nM,120 nM,CCN(CCc1ccccc1)c1ccc(C(O)(C(F)(F)F)C(F)(F)F)cc1,–
200 nM,3 nM,CCN(Cc1ccccc1)c1ccc(C(O)(C(F)(F)F)C(F)(F)F)cc1Cl,Activity [10]: 7%; IC50 [5]: 3 nM; Activity [11]: 28%; concentration at 120 h [12]: 3400 ng/mL; Activity [13]: 23%; EC50 [8]: 80 nM; concentration at 120 h [14]: 13000 ng/g
4300 nM,2700 nM,CCN(Cc1cccnc1)c1ccc(C(O)(C(F)(F)F)C(F)(F)F)cc1,–
100 nM,6 nM,CCN(Cc1nc(-c2cccc(C(F)(F)F)c2)oc1C)c1ccc(C(O)(C(F)(F)F)C(F)(F)F)cc1Cl,–
1100 nM,50 nM,CCN(Cc1ccccc1)c1ccc(C(O)(C(F)(F)F)C(F)(F)F)cc1,–
100 nM,1 nM,OC(c1ccc(N(Cc2ccccc2)CC(F)(F)F)c(Cl)c1)(C(F)(F)F)C(F)(F)F,–
3300 nM,600 nM,CCN(Cc1cscn1)c1ccc(C(O)(C(F)(F)F)C(F)(F)F)cc1,–
800 nM,6 nM,CCN(CCc1ccccc1)c1ccc(C(O)(C(F)(F)F)C(F)(F)F)cc1Cl,–
1000 nM,30 nM,Cc1oc(-c2cccc(Cl)c2)nc1CN(CC(F)(F)F)c1ccc(C(O)(C(F)(F)F)C(F)(F)F)cc1,–
5500 nM,100 nM,CCN(c1ccc(C(O)(C(F)(F)F)C(F)(F)F)cc1Cl)C(COc1ccc(CC(=O)O)cc1)c1ccccc1 (racemic),–
1400 nM,100 nM,CCN(c1ccc(C(O)(C(F)(F)F)C(F)(F)F)cc1Cl)C(COc1ccc(CCC(=O)OC)cc1)c1ccccc1 (racemic),–
> 40000 nM,12000 nM,CCN(c1ccc(C(O)(C(F)(F)F)C(F)(F)F)cc1)C(COCCO)c1ccccc1 (racemic),–
2300 nM,700 nM,CCN(c1ccc(C(O)(C(F)(F)F)C(F)(F)F)cc1)C(C(=O)OC)c1ccccc1 (racemic),–

EC50 [1],IC50 [2],SMILES,also measured
400 nM,200 nM,CCN(c1ccc(C(O)(C(F)(F)F)C(F)(F)F)cc1)C(C)(C(=O)N(C)C)c1ccccc1 (racemic),–
800 nM,900 nM,CCN(c1ccc(C(O)(C(F)(F)F)C(F)(F)F)cc1)C(COCC(=O)N(C)C)c1ccccc1 (racemic),–
700 nM,60 nM,CCN(c1ccc(C(O)(C(F)(F)F)C(F)(F)F)cc1Cl)C(COc1ccc(C(=O)OC)cc1)c1ccccc1 (racemic),–
10900 nM,11200 nM,CCN(c1ccc(C(O)(C(F)(F)F)C(F)(F)F)cc1)C(C(=O)NC)c1ccccc1 (racemic),–
500 nM,60 nM,CCN(c1ccc(C(O)(C(F)(F)F)C(F)(F)F)cc1Cl)C(CC)(C(=O)OC)c1ccccc1 (racemic),–
9400 nM,5200 nM,CCN(c1ccc(C(O)(C(F)(F)F)C(F)(F)F)cc1)C(C(=O)O)c1ccccc1 (racemic),–
10000 nM,61000 nM,CCN(c1ccc(C(O)(C(F)(F)F)C(F)(F)F)cc1)C(COCC(=O)O)c1ccccc1 (racemic),–
900 nM,400 nM,CCN(c1ccc(C(O)(C(F)(F)F)C(F)(F)F)cc1)C(COC)c1ccccc1 (racemic),–
1900 nM,200 nM,CCN(c1ccc(C(O)(C(F)(F)F)C(F)(F)F)cc1)C(COCc1ccccc1)c1ccccc1 (racemic),–
9300 nM,13800 nM,CCN(c1ccc(C(O)(C(F)(F)F)C(F)(F)F)cc1)C(C(=O)N(C)C)c1ccccc1 (racemic),–
100 nM,50 nM,CCN(c1ccc(C(O)(C(F)(F)F)C(F)(F)F)cc1)C(C)(C(=O)OC)c1ccccc1 (racemic),IC50 [5]: 8 nM; Activity [11]: 520%; concentration at 120 h [12]: 2300 ng/mL; Activity [13]: 12%; EC50 [8]: 30 nM; Activity [15]: 11%; concentration at 120 h [14]: 6300 ng/g
1100 nM,200 nM,CCN(c1ccc(C(O)(C(F)(F)F)C(F)(F)F)cc1Cl)C(COc1ccc(CC(=O)OC)cc1)c1ccccc1 (racemic),–
300 nM,50 nM,CCN(c1ccc(C(O)(C(F)(F)F)C(F)(F)F)cc1)C(CC)(C(=O)OC)c1ccccc1 (racemic),–
4500 nM,60 nM,CCN(c1ccc(C(O)(C(F)(F)F)C(F)(F)F)cc1Cl)C(COc1ccc(CCC(=O)O)cc1)c1ccccc1 (racemic),–
90 nM,60 nM,COC(=O)C1(c2ccccc2)CCCCN1c1ccc(C(O)(C(F)(F)F)C(F)(F)F)cc1 (racemic),–
200 nM,50 nM,COC(=O)C1(c2ccccc2)CCCN1c1ccc(C(O)(C(F)(F)F)C(F)(F)F)cc1 (racemic),–
2200 nM,600 nM,CCN(c1ccc(C(O)(C(F)(F)F)C(F)(F)F)cc1)C(COCC(=O)OC)c1ccccc1 (racemic),–
8500 nM,5400 nM,CCN(c1ccc(C(O)(C(F)(F)F)C(F)(F)F)cc1)C(C(=O)N1CCOCC1)c1ccccc1 (racemic),–
> 40000 nM,18000 nM,CCN(c1ccc(C(O)(C(F)(F)F)C(F)(F)F)cc1)C(COCC(=O)NC)c1ccccc1 (racemic),–
3700 nM,100 nM,CCN(c1ccc(C(O)(C(F)(F)F)C(F)(F)F)cc1Cl)C(COc1ccc(C(=O)O)cc1)c1ccccc1 (racemic),–
